What was measured:
[1] = tested on: A549 non-small cell lung carcinoma cells; experiment: Intracellular concentration / cell uptake assessment by LC-MS; assay type: cell-based, human; conditions: 100 μM, 4 hours, compared to aglycone NHI-2 and to each other
HeLa cells = conditions: antiproliferative IC50, HeLa and A549 cells
[2] = biological target: human lactate dehydrogenase hLDH5 (LDH-A4) (Homo sapiens, UniProt P00338); experiment: Enzyme inhibition assay, NADH-competition kinetics on purified hLDH5
GLUT1 = conditions: cited from earlier work; for Km: read-out: Km for GLUT1

Compound	cell uptake (intracellular concentration, in words) [1]	enhanced potency compared to NHI-2 (HeLa cells)	Km (GLUT1) [mM]	further results
COC(=O)c1cc2c(C(F)(F)F)cc(-c3ccccc3)cc2n1O[C@@H]1O[C@H](CO)[C@@H](O)[C@H](O)[C@H]1NC(C)=O [Compound 4, Methyl 1-(((2S,3R,4R,5S,6R)-3-acetamido-4,5-dihydroxy-6-(hydroxymethyl)tetrahydro-2H-pyran-2-yl)oxy)-6-phenyl-4-(trifluoromethyl)-1H-indole-2-carboxylate]	–	–	–	Ki [2]: 98.4 ± 15.6 µM
OC[C@H]1OC(O)[C@@H](O)[C@@H](O)[C@@H]1O (stereo partly drawn) [Mannose, D-mannose]	–	–	20	reduction of affinity for GLUT1 compared to glucose (GLUT1): 13 fold
OC[C@H]1OC(O)[C@H](O)[C@@H](O)[C@@H]1O (some centres unmarked) [glucose]	–	–	1.5	–

Now from value to compound, other results behind:

cell uptake (intracellular concentration, in words) [1]	Compound	enhanced potency compared to NHI-2 (HeLa cells)	Km (GLUT1) [mM]	further results
significantly enhanced cell uptake	COC(=O)c1cc2c(C(F)(F)F)cc(-c3ccccc3)cc2n1O[C@H]1O[C@H](CO)[C@@H](O)[C@H](O)[C@@H]1O [Compound 2, Methyl 6-phenyl-4-(trifluoromethyl)-1-(((2R,3S,4S,5S,6R)-3,4,5-trihydroxy-6-(hydroxymethyl)tetrahydro-2H-pyran-2-yl)oxy)-1H-indole-2-carboxylate]	3–6 fold	–	–
slightly lower levels of cell uptake	COC(=O)c1cc2c(C(F)(F)F)cc(-c3ccccc3)cc2n1O[C@@H]1O[C@H](CO)[C@H](O)[C@@H](O)[C@H]1O [Compound 3, Methyl 6-phenyl-4-(trifluoromethyl)-1-(((2S,3R,4R,5R,6R)-3,4,5-trihydroxy-6-(hydroxymethyl)tetrahydro-2H-pyran-2-yl)oxy)-1H-indole-2-carboxylate]	2–3 fold	–	–
